Measurements as given in US9012169B2, “Metabolic method to identify compounds having flavor or fragrance” (Givaudan S.A., priority 2004, dated 2015).

Columns and labels:
human CYP2A13 [1] = target: T1, human CYP2A13 (Homo sapiens, UniProt Q16696); settings: 60 min, 0.3 mM, pH 7.4
T1 sequence (Q16696 1-494): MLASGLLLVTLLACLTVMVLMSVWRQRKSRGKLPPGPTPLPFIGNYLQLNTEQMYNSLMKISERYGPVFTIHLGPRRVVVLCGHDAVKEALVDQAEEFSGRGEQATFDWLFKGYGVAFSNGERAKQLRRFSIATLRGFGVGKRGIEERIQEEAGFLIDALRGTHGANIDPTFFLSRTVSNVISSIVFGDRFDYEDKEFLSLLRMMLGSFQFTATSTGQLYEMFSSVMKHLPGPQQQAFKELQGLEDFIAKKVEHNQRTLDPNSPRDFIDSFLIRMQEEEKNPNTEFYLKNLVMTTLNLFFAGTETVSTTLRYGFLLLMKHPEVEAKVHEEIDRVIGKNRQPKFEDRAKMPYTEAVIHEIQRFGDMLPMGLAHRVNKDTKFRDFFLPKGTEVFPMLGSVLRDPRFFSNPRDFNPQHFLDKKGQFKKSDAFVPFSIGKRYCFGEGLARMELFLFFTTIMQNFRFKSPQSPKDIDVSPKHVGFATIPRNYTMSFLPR
Procedure: (§1) 100 pmoles human recombinant NADPH-P450 reductase contained in microsomes (BD Biosciences Gentest, USA) are incubated with 50 pmoles CYP2A13 microsomes for 15 minutes on ice. Freshly sonicated dilaurylphosphatidylcholine (DLPC, Fluka, Switzerland) is added from a stock solution (1 mg/ml in water) to give a final concentration of 0.025 mg/ml (0.5 ml final reaction volume) and the mixture is incubated on ice for 15 minutes. Potassium phosphate buffer (1 M, pH 7.4) and water are added to give a buffer concentration of 0.1M in a final volume of 0.5 ml. The test compound is prepared as a 50 mM stock solution in acetonitrile. […]
(§2) Following the 60 min incubation, the sample is chilled on ice for 10 minutes and the enzymatic reaction is stopped by extraction with 0.3 ml of the organic solvent methyl-t-butyl-ether (MTBE) that allows separating the test compound and its metabolites from the aqueous phase which contains the enzymes. 1 microliter of the MTBE fraction is analysed by GC and GC-MS to identify metabolites which are present in the enzymatic reaction, but not in the control.
(§3) For test compounds which show a decrease in umbelliferone-derived fluorescence, the incubation with the enzyme but without coumarin and analysis of metabolites is performed by GC and GC-MS as described in Example 2A. […]

human CYP2A13 [2] = target: T1, human CYP2A13; experiment: Incubation of a test compound with human CYP2A13 and identification of metabolites by GC and GC-MS; settings: from decrease of umbelliferone and metabolite found by GC-MS
Procedure: as §1, §2, §3

hTRPM8 = hTRPM8 (Homo sapiens, UniProt Q7Z2W7); experiment: Receptor screen using hTRPM8-expressing CHO-K1/FRT cells, Fura-2 intracellular calcium; settings: for Receptor ligand character at hTRPM8: conclusion from the receptor screen after the metabolic reaction with CE; for Intracellular calcium levels in hTRPM8-expressing CHO-K1 cells: menthyl-lactate incubated with CE (menthol formed) versus control with substrate but without CE
Procedure: The stable CHO-K1/FRT cell clones that express hTRPM8 are used in a receptor screen to identify ligands of said receptor. This is performed analogous to the method described by Peier et al. (Cell (2002) 108:705-715) for the mouse TRPM8 cDNA. Glass coverslips, 24-well and 96-well tissue culture plates are used for cell plating. Cells are loaded with the calcium-sensitive fluorescent dye Fura-2 acetoxymethyl ester (Fura-2AM). As a test compound, menthol or another known ligand is diluted in a suitable buffer compatible with the CHO-K1/FRT cells.
Menthyl-lactate, a substrate of CE, is incubated with CE. Controls contain menthyl-lactate but not CE. The incubation is performed as described in Examples 7B, subject to the following modifications: after 30 min incubation time at 25° C., the samples are chilled on ice for 10 min and centrifuged. Supernatants are transferred to empty wells and diluted with 1 volume 2×HEPES (4 mM Ca^2+). The dilution is used as a test sample in a receptor screen as described in Example 8.

[3] = target: T2, human recombinant carboxyl esterase (CE) (Homo sapiens, UniProt P23141); experiment: Incubation with human recombinant carboxyl esterase (CE) and standard substrate p-nitrophenylacetate, absorbance at 405 nm; format: biochemical; settings: 0.1 mM p-nitrophenylacetate, test compound 0-1 mM, 25° C., pH 7.2
T2 construct: In order to clone the full-length gene encoding CE; made in house; host or cells: Sf9 insect cells, baculovirus (pBlueBac4.5), used as microsomes
T2 sequence (P23141 18-566 isoform P23141-3 limits assumed): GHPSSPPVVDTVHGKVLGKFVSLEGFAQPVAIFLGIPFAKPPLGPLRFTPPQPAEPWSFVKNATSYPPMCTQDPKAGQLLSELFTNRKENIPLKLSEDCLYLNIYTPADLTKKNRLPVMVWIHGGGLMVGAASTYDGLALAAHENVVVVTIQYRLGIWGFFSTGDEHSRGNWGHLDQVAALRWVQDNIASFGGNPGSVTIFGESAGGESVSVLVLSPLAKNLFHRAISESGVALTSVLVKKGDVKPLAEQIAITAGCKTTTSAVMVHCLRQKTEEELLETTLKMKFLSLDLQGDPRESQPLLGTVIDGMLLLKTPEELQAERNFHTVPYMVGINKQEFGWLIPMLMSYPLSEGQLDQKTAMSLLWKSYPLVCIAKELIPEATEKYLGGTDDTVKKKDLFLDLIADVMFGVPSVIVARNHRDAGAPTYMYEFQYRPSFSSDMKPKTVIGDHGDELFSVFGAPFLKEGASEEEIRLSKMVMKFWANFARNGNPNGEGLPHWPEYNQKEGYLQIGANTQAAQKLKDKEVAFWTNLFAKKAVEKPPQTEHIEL
Procedure: The incubation of a test compound (potential substrate or modulator of CE) and CE is performed in the presence of a standard substrate, for example p-nitrophenylacetate. The hydrolysis product of p-nitrophenylacetate is p-nitrophenol which can be detected by measuring the absorbance at 405 nm. […] The incubation mixture contains CE microsomes containing CE enzyme corresponding to 4 mU of CE in a total volume of 0.2 ml (1 U hydrolyzes 1.0 μmole of ethylbutyrate to butyrate and ethanol per min at pH 8.0, 25° C.), 0.1 mM p-nitrophenylacetate, and the test compound in 50 mM potassium phosphate buffer (pH 7.2). The test compound is employed at different concentrations, for example 0, 0.05, 0.1, 0.25, 0.5, 1 mM, to allow detection of a dose-dependent effect. Samples that contain no test compound serve as a negative control. The samples are incubated at 25° C. and the increase in absorbance at 405 nm is measured every 5 minutes for 30 minutes.

[4] = target: T2, human recombinant carboxyl esterase (CE); experiment: Incubation with CE in the absence of the standard substrate, metabolites by GC and GC-MS; format: in vitro ADME
Procedure: Incubation with CE is performed in the absence of the standard substrate using 10 mU of CE in a total volume of 0.5 ml with the substrate at 0.25 mM and 50 mM potassium phosphate as the assay buffer.
GC and GC-MS analysis show the formation of an additional peak which is identified as menthol, which is a metabolite of menthyl-lactate.

[5] = target: T3, rat olfactory receptor 17 (Rattus norvegicus, UniProt P23270); experiment: Receptor screen using HEK293 cells expressing Galpha-15,16 and the rat olfactory receptor 17, intracellular calcium; format: cell-based; settings: octanol incubated with ADH (octanal present) versus control without enzyme
T3 construct: expressed in transfected cells; host or cells: HEK293
T3 sequence (P23270 1-327): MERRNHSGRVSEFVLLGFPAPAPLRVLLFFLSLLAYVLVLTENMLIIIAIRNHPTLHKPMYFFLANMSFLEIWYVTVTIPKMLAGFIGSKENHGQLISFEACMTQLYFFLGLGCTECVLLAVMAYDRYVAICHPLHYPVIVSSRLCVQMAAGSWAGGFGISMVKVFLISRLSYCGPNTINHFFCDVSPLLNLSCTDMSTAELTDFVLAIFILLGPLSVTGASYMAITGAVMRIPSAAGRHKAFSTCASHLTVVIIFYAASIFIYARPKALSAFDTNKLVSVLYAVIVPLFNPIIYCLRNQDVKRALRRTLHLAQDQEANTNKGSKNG
Procedure: Octanol is incubated with alcohol dehydrogenase as described in example 10, controls without alcohol dehydrogenase are incubated accordingly. In the presence of the enzyme, the metabolite of octanol, which is octanal, is present as shown in example 10.
The rat olfactory receptor 17 together with the Galpha15,16 are expressed by co-transfection in HEK293 cells as described by Krautwurst et al. (1998), Cell 95:917-926. Transfected HEK293 cells are plated on coverslips, 24-well tissue culture plates, and microtiter plates. These coverslips and plates are incubated with Fura-2 as described in example 8. The microtiter plates are incubated as described by Krautwurst et al. (1998).
The supernatant is transferred to an empty container and diluted with 2×HEPES (4 mM Ca^2+). This dilution is used as a sample in the receptor screen as described in Example 8, using HEK293 cells that express Galpha-15,16 and the rat olfactory receptor 17.
Fluorescence recording is performed to monitor any increase in intracellular, cytoplasmic calcium levels.

[6] = target: T4, equine liver ADH (EC 1.1.1.1) (Equus caballus, UniProt P00327); experiment: Incubation of octanol with alcohol dehydrogenase (ADH), metabolite by GC and GC-MS; format: in vitro ADME; settings: octanol 0.1 M, 50 mU ADH, 10 mM NAD+, pH 8.5, 30 min at 25° C.
T4 construct: purchased Sigma-Aldrich, Switzerland
Procedure: Human alcohol dehydrogenase exists as a heterogeneous group of isozymes capable of oxidizing a wide variety of aliphatic and aromatic alcohols. Any isozyme of the human enzyme can be used. In this example, equine liver ADH (EC 1.1.1.1; Sigma-Aldrich, Switzerland) is used instead of the human enzyme. Octanol is incubated with ADH in a 1-ml reaction volume containing 50 mM potassium phosphate (pH 8.5) and 10 mM NAD+ (Fluka, Switzerland). Octanol is added at a concentration of 0.1 M and the metabolic reaction is initiated by addition of 50 mU of ADH and incubated for 30 min at 25° C. The tube is centrifuged to separate any debris and the supernatant extracted with MTBE for analysis by GC and GC-MS. […] The metabolite is identified by GC analysis and GC-MS as octanal.

[7] = target: T5, human microsomal epoxide hydrolase (EH) (Homo sapiens, UniProt P07099); experiment: Incubation of styrene oxide with human microsomal epoxide hydrolase (EH), metabolite by GC-MS; format: in vitro ADME; settings: 0.5 mM styrene oxide, 0.2 mg/ml EH, pH 9, 30 min at 37° C.
T5 construct: purchased BD Bioscience, Gentest, US
T5 sequence (P07099 1-455): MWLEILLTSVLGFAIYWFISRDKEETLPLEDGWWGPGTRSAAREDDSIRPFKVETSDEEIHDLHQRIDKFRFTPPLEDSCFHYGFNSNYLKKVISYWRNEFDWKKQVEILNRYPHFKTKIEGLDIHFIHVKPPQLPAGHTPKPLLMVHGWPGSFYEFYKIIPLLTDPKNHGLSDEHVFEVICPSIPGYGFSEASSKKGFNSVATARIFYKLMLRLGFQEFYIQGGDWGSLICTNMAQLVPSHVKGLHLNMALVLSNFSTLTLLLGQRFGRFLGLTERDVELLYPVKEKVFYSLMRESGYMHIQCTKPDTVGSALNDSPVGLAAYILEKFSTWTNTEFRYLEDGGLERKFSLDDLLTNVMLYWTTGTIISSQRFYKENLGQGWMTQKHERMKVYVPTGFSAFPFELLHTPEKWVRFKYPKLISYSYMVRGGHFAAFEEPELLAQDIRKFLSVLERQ

[8] = target: CYP2E1 and Epoxide Hydrolase (EH) (Homo sapiens, UniProt P05181)
CYP2E1 and Epoxide Hydrolase (EH), sequence (P05181 whole entry): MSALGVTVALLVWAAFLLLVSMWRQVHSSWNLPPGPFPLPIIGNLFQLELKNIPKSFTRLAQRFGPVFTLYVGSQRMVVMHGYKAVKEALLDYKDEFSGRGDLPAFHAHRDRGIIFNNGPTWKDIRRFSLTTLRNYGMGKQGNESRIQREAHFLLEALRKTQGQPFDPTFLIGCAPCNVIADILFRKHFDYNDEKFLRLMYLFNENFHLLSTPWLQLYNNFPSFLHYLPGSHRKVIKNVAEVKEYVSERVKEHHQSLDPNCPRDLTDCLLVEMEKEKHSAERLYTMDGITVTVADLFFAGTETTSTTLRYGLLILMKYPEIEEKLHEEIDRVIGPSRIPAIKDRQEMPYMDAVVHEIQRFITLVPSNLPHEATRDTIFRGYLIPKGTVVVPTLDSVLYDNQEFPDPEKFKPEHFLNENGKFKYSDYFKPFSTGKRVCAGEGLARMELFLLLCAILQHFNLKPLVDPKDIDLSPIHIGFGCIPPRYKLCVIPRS
Procedure: Styrene is incubated in a first incubation step with microsomal membranes of baculovirus-infected Sf9 insect cell membranes that contain CYP2E1 and POR. In a second incubation step, this sample is incubated with EH.
In the first step, 3 μl styrene (77 mM in acetonitrile), 425 μl potassium phosphate buffer (50 mM, pH 7.4), 16.5 μl MgCl2, 50 pmole of CYP2E1 containing cytochrome P450 reductase (purchased from BD Bioscience, Gentest, US) and water are mixed to give a total volume of 470 μl. 30 μl NADPH (50 mM in water) are added to the sample, to the control 30 μl water are added. Sample and control are incubated at 37° C. for 1 hour.
In the second step, 50 μl of 1 M Tris-Cl, pH 9 followed by 0.4 mg/ml protein (human microsomal epoxide hydrolase microsomes, 25,000 pmole styrene oxide hydrolase activity/(min×mg protein) BD Bioscience, Gentest, US) is added and incubation is continued for 30 min.
After the second step, 100 μl acetonitrile is added to sample and control and they are placed on ice. This stops the enzymatic reaction. Compounds in the samples are extracted with MTBE.
Metabolites, i.e. additional compounds present in the sample but not in the control, are identified by GC-MS.

hTRPM8, sequence (Q7Z2W7 whole entry): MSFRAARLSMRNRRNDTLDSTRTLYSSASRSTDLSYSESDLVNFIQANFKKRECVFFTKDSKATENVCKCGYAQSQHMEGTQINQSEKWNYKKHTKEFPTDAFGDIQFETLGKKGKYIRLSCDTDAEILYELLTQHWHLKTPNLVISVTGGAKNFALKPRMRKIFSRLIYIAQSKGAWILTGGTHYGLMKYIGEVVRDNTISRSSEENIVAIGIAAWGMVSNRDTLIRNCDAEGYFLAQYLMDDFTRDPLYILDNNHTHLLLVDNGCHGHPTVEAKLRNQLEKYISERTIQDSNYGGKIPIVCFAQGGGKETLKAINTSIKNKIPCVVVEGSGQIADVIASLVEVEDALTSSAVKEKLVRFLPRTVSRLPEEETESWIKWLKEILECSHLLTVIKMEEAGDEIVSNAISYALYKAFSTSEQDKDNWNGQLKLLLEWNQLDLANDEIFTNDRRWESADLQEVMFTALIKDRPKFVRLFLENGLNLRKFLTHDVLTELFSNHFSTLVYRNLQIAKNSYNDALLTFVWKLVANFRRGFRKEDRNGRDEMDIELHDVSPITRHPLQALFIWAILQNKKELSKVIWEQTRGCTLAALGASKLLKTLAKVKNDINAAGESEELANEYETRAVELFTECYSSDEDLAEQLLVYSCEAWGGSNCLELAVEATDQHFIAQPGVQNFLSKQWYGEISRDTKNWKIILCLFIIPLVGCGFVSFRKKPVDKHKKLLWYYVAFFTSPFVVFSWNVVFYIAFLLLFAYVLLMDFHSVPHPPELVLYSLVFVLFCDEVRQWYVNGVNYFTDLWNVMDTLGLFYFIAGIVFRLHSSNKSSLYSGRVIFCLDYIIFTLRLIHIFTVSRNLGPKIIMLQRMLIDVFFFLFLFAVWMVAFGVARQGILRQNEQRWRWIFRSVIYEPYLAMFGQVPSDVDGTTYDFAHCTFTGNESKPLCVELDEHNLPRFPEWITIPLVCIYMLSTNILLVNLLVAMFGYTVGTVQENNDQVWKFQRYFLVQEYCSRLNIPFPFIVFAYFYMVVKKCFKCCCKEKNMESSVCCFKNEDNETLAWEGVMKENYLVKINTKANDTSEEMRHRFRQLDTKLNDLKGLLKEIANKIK
T4 sequence (P00327 2-375 limits assumed): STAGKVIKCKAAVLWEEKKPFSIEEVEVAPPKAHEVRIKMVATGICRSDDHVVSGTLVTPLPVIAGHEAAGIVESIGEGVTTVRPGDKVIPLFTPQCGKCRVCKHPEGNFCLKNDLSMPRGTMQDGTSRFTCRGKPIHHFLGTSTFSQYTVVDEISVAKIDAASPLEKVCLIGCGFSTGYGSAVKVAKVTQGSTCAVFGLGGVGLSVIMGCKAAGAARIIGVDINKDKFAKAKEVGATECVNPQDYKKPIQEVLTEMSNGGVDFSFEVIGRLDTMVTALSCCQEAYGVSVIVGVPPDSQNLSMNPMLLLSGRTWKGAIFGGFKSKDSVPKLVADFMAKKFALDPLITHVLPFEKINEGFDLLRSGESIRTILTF

COCC(=O)c1ccccc1 [2-methoxyacetophenone]
Metabolite identified by GC and GC-MS (additional peak present in the sample, not in the control) (human CYP2A13 [1]): 2-hydroxyacetophenone

CN(C)c1ccccc1 [N,N-dimethylaniline]
Identification as substrate or modulator of CYP2A13 (human CYP2A13 [2]): substrate of CYP2A13

CC1CCC(C(C)C)C(O)C1 (centres unmarked) [menthol]
Receptor ligand character at hTRPM8 (hTRPM8): preferred hTRPM8 agonist
Intracellular calcium levels in hTRPM8-expressing CHO-K1 cells (hTRPM8): increase of intracellular calcium levels

CC1CCC(C(C)C)C(OC(=O)C(C)O)C1 (centres unmarked) [menthyl-lactate]
Formation of the enzymatic reaction product of p-nitrophenylacetate compared to negative control [3]: concentration-dependent decrease
Metabolite identified by GC and GC-MS (additional peak) ([4]; 10 mU CE, substrate 0.25 mM, 30 min at 25° C., no standard substrate): menthol
Identification as substrate or modulator of human CE ([4]; from decrease of standard product and metabolite found): substrate of human CE
Receptor ligand character at hTRPM8 (hTRPM8): not the main receptor ligand
Intracellular calcium levels in hTRPM8-expressing CHO-K1 cells (hTRPM8): no comparable increase

CCCCCCCC=O [octanal]
Activation of the rat olfactory receptor 17 (increase in intracellular calcium levels) [5]: agonist

CCCCCCCCO [octanol]
Metabolite identified by GC analysis and GC-MS [6]: octanal
Activation of the rat olfactory receptor 17 (increase in intracellular calcium levels) [5]: not able to activate the receptor

c1ccc(C2CO2)cc1 (centres unmarked) [styrene oxide]
Metabolite found by GC-MS in the sample but not in the control [7]: diol

C=Cc1ccccc1 [styrene]
Identified metabolites by GC-MS (present in the sample, not in the control) [8]: styrene epoxide and the corresponding diol
